From patent EP0697214A1, “Liposomal cyclosporin pharmaceutical formulations” (VESTAR, INC., priority 1994, dated 1996)

Experiments:
[1] = system: resistant L1210 murine leukemia cells; experiment: Multiple drug resistance test, 3H-thymidine uptake; format: cell-based; details: Mus musculus, daunorubicin alone, 24 hours, read-out: IC₅₀ in Resistant Cells
Protocol: (§1) Multiple drug resistance (MDR) was tested in vitro using resistant and sensitive L1210 murine leukemia cells. Liposomal Cyclosporine was obtained as described in Example 13 (19:3:1 formulation HEPC:DMPG:Cyclosporine) except that a spray dried lipid powder was used and the unilamellar vesicles were formed through homogenization. Daunorubicin, Cyclosporine-CreL, and liposomal Cyclosporine were diluted in RPMI-1640. The final concentration of daunorubicin in each well was 0, 0.3, 1, 3, 10, 30, 100 or 1000 ng/ml. The final concentration of Cyclosporine-CreL in each well was 0, 10, 70, 300, 1,250, 5,000, 20,000, 80,000, 160,000, 310,000, 620,000, or 1,050,000 ng/ml. The final concentration of liposomal Cyclosporine in each well was 0, 10, 70, 300, 1,250, 5,000, 20,000, 80,000, 160,000, 310,000, 620,000, or 1,050,000 ng/ml. Fifty microliters of each daunorubicin concentration was added to one well of a flat bottom 96-well culture plate. Fifty microliters of the appropriate concentration of Cyclosporine-CreL or liposomal Cyclosporine were also added to each well. Each drug combination was tested in triplicate. […]
(§2) After 20 hours of incubation, the cells were pulsed with 0.5µCu of³H-Thymidine per well. […] The cells in each well were then harvested using a Skatron Harvester and counted in a beta liquid scintillation counter (LKB). The IC₅₀ was calculated using a linear regression treatment of the data.

[2] = system: sensitive L1210 murine leukemia cells; experiment: Multiple drug resistance test, 3H-thymidine uptake; format: cell-based; details: Mus musculus, daunorubicin alone, 24 hours, read-out: IC₅₀ in Sensitive Cells
Protocol: as §1, §2

## COc1cccc2c1C(=O)c1c(O)c3c(c(O)c1C2=O)C[C@@](O)(C(C)=O)C[C@@H]3O[C@H]1C[C@H](N)[C@H](O)[C@H](C)O1 [Daunorubicin]
[1]
  IC50: 0.722 µg/mL
[2]
  IC50: 0.47 µg/mL
